Reference: ChEMBL document CHEMBL4043249, “Discovery of potent antiviral (HSV-1) quinazolinones and initial structure-activity relationship studies” (Bioorg Med Chem Lett, 2017)
Active and inactive are the calls of the source. No cut-off for these calls is given here.

Columns and labels:
[1] = Cytotoxicity against human induced pluripotent stem cell-derived neurons assessed as effect on cell viability after 24 hrs by live/dead fixable aqua dead cell staining based assay; conditions: induced pluripotent stem cell-derived neuron
Human alphaherpesvirus 1 [2] = experiment: Anti-viral activity against Herpes simplex virus-1 harboring EGFP infected in iPSC-derived neurons assessed as reduction in ICP0 expression treated 2 hrs post infection measured after 72 hrs by Alexa fluor 488 staining based flow cytometric analysis; type: functional
[3] = Cytotoxicity against human induced pluripotent stem cell-derived neurons assessed as morphological changes after 48 to 72 hrs by live/dead fixable aqua dead cell staining based assay; conditions: induced pluripotent stem cell-derived neuron
Human alphaherpesvirus 1 [4] = experiment: Anti-viral activity against Herpes simplex virus-1 harboring EGFP infected in iPSC-derived neurons assessed as reduction in ICP0 expression at 50 uM treated 2 hrs post infection measured after 72 hrs by Alexa fluor 488 staining based flow cytometric analysis; type: functional
Human alphaherpesvirus 1 [5] = experiment: Anti-viral activity against Herpes simplex virus-1 harboring EGFP infected in iPSC-derived neurons assessed as reduction in ICP0 expression at 10 to 50 uM treated 2 hrs post infection measured after 72 hrs by Alexa fluor 488 staining based flow cytometric analysis; type: functional
Human alphaherpesvirus 1 [6] = experiment: Anti-viral activity against Herpes simplex virus-1 harboring EGFP infected in iPSC-derived neurons assessed as viable cells at 50 mM treated 2 hrs post infection measured after 72 hrs by Alexa fluor 488 staining based flow cytometric analysis (reference value: 17.8%); type: functional
Human alphaherpesvirus 1 [7] = experiment: Anti-viral activity against Herpes simplex virus-1 harboring EGFP infected in iPSC-derived neurons assessed as early apoptotic cells at 50 mM treated 2 hrs post infection measured after 72 hrs by Alexa fluor 488 staining based flow cytometric analysis (reference value: 13.2%); type: functional
Vero = experiment: Cytotoxicity against African green monkey Vero cells assessed as effect on cell viability at 10 to 1000000 nM; type: cell-based; conditions: chlorocebus sabaeus, 1000 µM
Human alphaherpesvirus 1 [8] = experiment: Anti-viral activity against Herpes simplex virus-1 harboring EGFP infected in iPSC-derived neurons assessed as necrotic cells at 10 mM treated 2 hrs post infection measured after 72 hrs by Alexa fluor 488 staining based flow cytometric analysis (reference value: 3.33%); type: functional
Human alphaherpesvirus 1 [9] = experiment: Anti-viral activity against Herpes simplex virus-1 harboring EGFP infected in iPSC-derived neurons assessed as necrotic cells at 50 mM treated 2 hrs post infection measured after 72 hrs by Alexa fluor 488 staining based flow cytometric analysis (reference value: 3.33%); type: functional
NSC = experiment: Cytotoxicity against NSC (unknown origin) assessed as effect on cell viability at 10 to 1000000 nM; type: cell-based; conditions: 1000 µM
Human alphaherpesvirus 1 [10] = experiment: Anti-viral activity against Herpes simplex virus-1 harboring EGFP infected in iPSC-derived neurons assessed as late apoptotic cells at 50 mM treated 2 hrs post infection measured after 72 hrs by Alexa fluor 488 staining based flow cytometric analysis (reference value: 65.7%); type: functional
Human alphaherpesvirus 1 [11] = experiment: Anti-viral activity against Herpes simplex virus-1 harboring EGFP infected in iPSC-derived neurons assessed as early apoptotic cells at 10 mM treated 2 hrs post infection measured after 72 hrs by Alexa fluor 488 staining based flow cytometric analysis (reference value: 13.2%); type: functional
Human alphaherpesvirus 1 [12] = experiment: Anti-viral activity against Herpes simplex virus-1 harboring EGFP infected in iPSC-derived neurons assessed as viable cells at 10 mM treated 2 hrs post infection measured after 72 hrs by Alexa fluor 488 staining based flow cytometric analysis (reference value: 17.8%); type: functional
Neuron = experiment: Cytotoxicity against neurons (unknown origin) assessed as effect on cell viability at 10 to 1000000 nM; type: cell-based; conditions: 1000 µM
Human alphaherpesvirus 1 [13] = experiment: Anti-viral activity against Herpes simplex virus-1 harboring EGFP infected in iPSC-derived neurons assessed as late apoptotic cells at 10 mM treated 2 hrs post infection measured after 72 hrs by Alexa fluor 488 staining based flow cytometric analysis (reference value: 65.7%); type: functional
[14] = Induction of heterochromatinization in Induced pluripotent stem cell-derived neuron (unknown origin) infected with HSV-1 assessed as increase in H3K27 trimethylation at ICP4 gene by chromatin immunoprecipitation based RT-PCR analysis
Human alphaherpesvirus 1 [15] = experiment: Anti-viral activity against Herpes simplex virus-1 harboring EGFP infected in iPSC-derived neurons assessed as reduction in ICP0 expression at 10 uM treated 2 hrs post infection measured after 72 hrs by Alexa fluor 488 staining based flow cytometric analysis; type: functional

## COc1ccc(-n2c(-c3ccc(OCc4ccccc4)cc3)nc3ccccc3c2=O)cc1
[1]
  Activity: Toxic
Human alphaherpesvirus 1 [2]
  Activity: Active
[3]
  Activity: Toxic
Human alphaherpesvirus 1 [4]
  Activity: Active

## COc1ccc(-n2c(-c3ccc(Oc4ccccc4)cc3)nc3ccccc3c2=O)cc1
Human alphaherpesvirus 1 [5]
  Activity: inactive

## O=c1[nH]c(-c2ccc(OCc3ccccc3)cc2)nc2ccccc12
Human alphaherpesvirus 1 [2]
  Activity: inactive

## COc1ccc(-n2c(-c3ccc(OCc4cccc(Br)c4)cc3)nc3ccccc3c2=O)cc1
Human alphaherpesvirus 1 [6]
  Activity: 82%
Human alphaherpesvirus 1 [7]
  Activity: 3.76%
Vero
  Activity: Toxic
Human alphaherpesvirus 1 [8]
  Activity: 0.59%
Human alphaherpesvirus 1 [9]
  Activity: 4.31%
NSC
  Activity: Toxic
Human alphaherpesvirus 1 [5]
  Activity: Active
Human alphaherpesvirus 1 [10]
  Activity: 9.96%
Human alphaherpesvirus 1 [11]
  Activity: 3.24%
Human alphaherpesvirus 1 [12]
  Activity: 90.1%
Neuron
  Activity: Toxic
Human alphaherpesvirus 1 [13]
  Activity: 6.1%

## COc1ccc(-n2c(-c3ccc(Oc4ccc(OC(F)(F)F)cc4)cc3)nc3ccccc3c2=O)cc1
Human alphaherpesvirus 1 [5]
  Activity: inactive

## COc1ccc(-c2nc3ccccc3c(=O)n2-c2ccc(Br)cc2)cc1
Human alphaherpesvirus 1 [2]
  Activity: Active

## O=c1c2ccccc2nc(-c2ccc(OCc3cccc(Br)c3)cc2)n1-c1ccc(Br)cc1
Human alphaherpesvirus 1 [5]
  Activity: Active

## COc1ccc(Oc2ccc(-c3nc4ccccc4c(=O)n3-c3ccc(OC)cc3)cc2)cc1
Human alphaherpesvirus 1 [5]
  Activity: inactive

## COc1ccc(-n2c(-c3ccc(Nc4ccccc4)cc3)nc3ccccc3c2=O)cc1
Human alphaherpesvirus 1 [5]
  Activity: inactive

## O=c1c2ccccc2nc(-c2ccc(OCc3ccc(Br)cc3)cc2)n1-c1ccc(Br)cc1
Human alphaherpesvirus 1 [5]
  Activity: Active

## COc1ccc(-n2c(-c3ccc(Oc4ccc(Cl)cc4)cc3)nc3ccccc3c2=O)cc1
Human alphaherpesvirus 1 [5]
  Activity: inactive

## COc1ccc(-n2c(-c3ccc(OCc4ccc(Br)cc4)cc3)nc3ccccc3c2=O)cc1
Human alphaherpesvirus 1 [6]
  Activity: 88.9%
Human alphaherpesvirus 1 [7]
  Activity: 3.36%
Vero
  Activity: Toxic
Human alphaherpesvirus 1 [8]
  Activity: 0.6%
Human alphaherpesvirus 1 [9]
  Activity: 2.91%
NSC
  Activity: Toxic
Human alphaherpesvirus 1 [5]
  Activity: Active
Human alphaherpesvirus 1 [10]
  Activity: 5.03%
Human alphaherpesvirus 1 [11]
  Activity: 3.18%
Human alphaherpesvirus 1 [12]
  Activity: 91.6%
Neuron
  Activity: Toxic
Human alphaherpesvirus 1 [13]
  Activity: 4.64%

## CCCCCCn1c(-c2ccc(OCc3ccccc3)cc2)nc2ccccc2c1=O
Human alphaherpesvirus 1 [2]
  Activity: inactive

## O=c1c2ccccc2nc(-c2ccc(Br)cc2)n1-c1ccc(Br)cc1
Human alphaherpesvirus 1 [2]
  Activity: Active

## Nc1nc2c(ncn2COCCO)c(=O)[nH]1 [ACYCLOVIR]
Human alphaherpesvirus 1 [6]
  Activity: 92.6%
Human alphaherpesvirus 1 [7]
  Activity: 6.22%
Human alphaherpesvirus 1 [8]
  Activity: 1.13%
Human alphaherpesvirus 1 [9]
  Activity: 0.76%
Human alphaherpesvirus 1 [10]
  Activity: 0.44%
Human alphaherpesvirus 1 [11]
  Activity: 7.92%
Human alphaherpesvirus 1 [12]
  Activity: 89.6%
Human alphaherpesvirus 1 [13]
  Activity: 1.36%

## O=c1c2ccccc2nc(-c2ccc(OCc3ccccc3)cc2)n1-c1ccc(Br)cc1
[1]
  Activity: Toxic
[14]
  Activity: Non-Toxic
Human alphaherpesvirus 1 [15]
  Activity: Active
Human alphaherpesvirus 1 [2]
  Activity: Active
[3]
  Activity: Toxic
Human alphaherpesvirus 1 [4]
  Activity: Active
